# Laboratory results reported in patent US7034208B1, “Ahas inhibiting herbicide resistant wheat and method for selection thereof” (BASF Aktiengellschaft, priority 1991, dated 2006).
# Tests used:
# [1] = test system: reciprocally crossed and selfed progeny of mutant wheat selections; test: Genetic Condition Studies Experiment 2, reciprocal crosses and selfed progeny; format: in vivo; details: 200 g/ha postemergence
# Source text: Experiment 2: This experiment continues the evaluation of the mutant wheat selections by examining herbicide resistance in reciprocal crossed and selfed material. Reciprocal crosses are made between M3 plants representing each of the original four mutant selections and between these selections and Fidel. Progeny of these crosses as well as selfed progeny of the plants used in the crosses are planted in 6 inch azalea pots in Metro Mix 350™. Ten pots of each cross are planted with two seeds planted per pot. Ten days later, all of the selfed and reciprocally crossed progeny are sprayed postemergence with PURSUIT™ at 200 g/ha. Herbicide treatment is applied as described in Experiment 1. Plants are thinned to one plant per pot (by removing the weaker of the two plants per pot) one week after herbicide treatment. There is 100% germination of seed from the mutant reciprocal crosses and greater than 90% germination of seed from the selfed mutants.
# [2] = test system: testcross progeny Fidel x (Fidel/FS1-FS4); test: Genetic Condition Studies Experiment 3, testcrosses back to Fidel; format: in vivo, wheat; details: out of 49 test-cross progeny sprayed; 200 g/ha; rated three and one-half weeks later
# Source text: Experiment 3: Testcrosses of the F1 hybrids (described in Experiment 1) back to Fidel are sprayed with 200 g/ha of PURSUIT™. The following testcrosses are planted in 6 inch azalea pots in Metro Mix 350™. The number of pots planted per cross is indicated by the number after the cross:
# Approximately one month later, the plants are sprayed (except for Fidel). PURSUIT™ (200 g/ha) is applied as previously described. The plants are rated three and one-half weeks later.
# [3] = test system: F2 of intercrosses between wheat selections FS1-FS4; test: Genetic Condition Studies Experiment 5, allelism (Table 3); format: in vivo; details: 200 g/ha, after treatment
# Source text: Experiment 5: Crosses and reciprocal crosses are made between the four mutant wheat selections. The F1 seed from these crosses is planted and the plants allowed to self. The F2 seed is harvested and used in this experiment to determine allelism of the four selections. Whole-flats are filled with Metro Mix 350™ and are sown with 100 seeds per cross (four rows with 25 seeds/row). In addition a row of susceptible Fidel is sown in each flat. Three sources from each cross are used. When the seedlings reach the Z12 stage, the flats are sprayed with PURSUIT™ at 200 g/ha. The PURSUIT™ solution is applied as previously described. […]
# [4] = test system: mutant wheat selections FS1-FS4 and Fidel; format: in vivo; details: postemergence
# Source text: This greenhouse test examines the level and spectrum of herbicide resistance of the mutant selections at the whole plant level. […] These lines are bulked according to their parental lines: FS1, FS2, FS3 and FS4. Fidel (wild-type) is used is a control and for performance comparison purposes. Five seeds from each of these lines (including Fidel) are planted per pot in six inch Azalea pots and are later thinned to three plants per pot. Three replicates are used per treatment (chemical and rate) for each line, and six replicates per wheat line are used as untreated controls. Plants are sprayed postemergence, 10 days after planting, with the following herbicides and rates: […]
# [5] = test system: wheat selection FS4 and Fidel; test: Field Trial II; format: in vivo; details: resistant selection FS4; postemergent; six weeks after treatment
smiles,measurement,setting,value
"CCc1cnc(C2=NC(C)(C(C)C)C(=O)N2)c(C(=O)O)c1 (stereo not drawn) [PURSUIT, 5-ethyl-2-(4-isopropyl-4-methyl-5-oxo-2-imidazolin-2-yl)-nicotinic acid]",damage to mutant crosses,[1],None of the mutant crosses is damaged
same,test-cross progeny killed,[2],20
same,test-cross progeny that survive,[2],29
same,Resist: number of plants resistant,[3]; F2 source (FS1/FS2)X-1,71
same,Suscept: number of plants susceptible,[3]; F2 source (FS1/FS2)X-1,1
same,Resist: number of plants resistant,[3]; F2 source (FS1/FS2)X-2,85
same,Suscept: number of plants susceptible,[3]; F2 source (FS1/FS2)X-2,2
same,Resist: number of plants resistant,[3]; F2 source (FS1/FS2)X-3,74
same,Suscept: number of plants susceptible,[3]; F2 source (FS1/FS2)X-3,1
same,Resist: number of plants resistant,[3]; F2 source (FS1/FS3)X-1,82
same,Suscept: number of plants susceptible,[3]; F2 source (FS1/FS3)X-1,0
same,Resist: number of plants resistant,[3]; F2 source (FS1/FS3)X-2,92
same,Suscept: number of plants susceptible,[3]; F2 source (FS1/FS3)X-2,0
same,Resist: number of plants resistant,[3]; F2 source (FS1/FS3)X-3,93
same,Suscept: number of plants susceptible,[3]; F2 source (FS1/FS3)X-3,0
same,Resist: number of plants resistant,[3]; F2 source (FS1/FS4)X-1,96
same,Suscept: number of plants susceptible,[3]; F2 source (FS1/FS4)X-1,0
same,Resist: number of plants resistant,[3]; F2 source (FS1/FS4)X-2,90
same,Suscept: number of plants susceptible,[3]; F2 source (FS1/FS4)X-2,0
same,Resist: number of plants resistant,[3]; F2 source (FS1/FS4)X-3,93
same,Suscept: number of plants susceptible,[3]; F2 source (FS1/FS4)X-3,2
same,Resist: number of plants resistant,[3]; F2 source (FS2/FS1)X-1,95
same,Suscept: number of plants susceptible,[3]; F2 source (FS2/FS1)X-1,0
same,Resist: number of plants resistant,[3]; F2 source (FS2/FS1)X-2,91
same,Suscept: number of plants susceptible,[3]; F2 source (FS2/FS1)X-2,0
same,Resist: number of plants resistant,[3]; F2 source (FS2/FS1)X-3,97
same,Suscept: number of plants susceptible,[3]; F2 source (FS2/FS1)X-3,0
same,Resist: number of plants resistant,[3]; F2 source (FS2/FS3)X-1,99
same,Suscept: number of plants susceptible,[3]; F2 source (FS2/FS3)X-1,0
same,Resist: number of plants resistant,[3]; F2 source (FS2/FS3)X-2,87
same,Suscept: number of plants susceptible,[3]; F2 source (FS2/FS3)X-2,1
same,Resist: number of plants resistant,[3]; F2 source (FS2/FS3)X-3,92
same,Suscept: number of plants susceptible,[3]; F2 source (FS2/FS3)X-3,0
same,Resist: number of plants resistant,[3]; F2 source (FS2/FS4)X-1,102
same,Suscept: number of plants susceptible,[3]; F2 source (FS2/FS4)X-1,0
same,Resist: number of plants resistant,[3]; F2 source (FS2/FS4)X-2,97
same,Suscept: number of plants susceptible,[3]; F2 source (FS2/FS4)X-2,0
same,Resist: number of plants resistant,[3]; F2 source (FS2/FS4)X-3,97
same,Suscept: number of plants susceptible,[3]; F2 source (FS2/FS4)X-3,1
same,Resist: number of plants resistant,[3]; F2 source (FS3/FS1)X-2,95
same,Suscept: number of plants susceptible,[3]; F2 source (FS3/FS1)X-2,0
same,Resist: number of plants resistant,[3]; F2 source (FS3/FS1)X-3,97
same,Suscept: number of plants susceptible,[3]; F2 source (FS3/FS1)X-3,0
same,Resist: number of plants resistant,[3]; F2 source (FS3/FS1)X-5,94
same,Suscept: number of plants susceptible,[3]; F2 source (FS3/FS1)X-5,1
same,Resist: number of plants resistant,[3]; F2 source (FS3/FS2)X-1,96
same,Suscept: number of plants susceptible,[3]; F2 source (FS3/FS2)X-1,0
same,Resist: number of plants resistant,[3]; F2 source (FS3/FS2)X-2,94
same,Suscept: number of plants susceptible,[3]; F2 source (FS3/FS2)X-2,0
same,Resist: number of plants resistant,[3]; F2 source (FS3/FS2)X-3,96
same,Suscept: number of plants susceptible,[3]; F2 source (FS3/FS2)X-3,0
same,Resist: number of plants resistant,[3]; F2 source (FS3/FS4)X-1,98
same,Suscept: number of plants susceptible,[3]; F2 source (FS3/FS4)X-1,0
same,Resist: number of plants resistant,[3]; F2 source (FS3/FS4)X-2,96
same,Suscept: number of plants susceptible,[3]; F2 source (FS3/FS4)X-2,0
same,Resist: number of plants resistant,[3]; F2 source (FS3/FS4)X-3,96
same,Suscept: number of plants susceptible,[3]; F2 source (FS3/FS4)X-3,0
same,Resist: number of plants resistant,[3]; F2 source (FS4/FS1)X-1,93
same,Suscept: number of plants susceptible,[3]; F2 source (FS4/FS1)X-1,1
same,Resist: number of plants resistant,[3]; F2 source (FS4/FS1)X-2,91
same,Suscept: number of plants susceptible,[3]; F2 source (FS4/FS1)X-2,0
same,Resist: number of plants resistant,[3]; F2 source (FS4/FS1)X-3,94
same,Suscept: number of plants susceptible,[3]; F2 source (FS4/FS1)X-3,1
same,Resist: number of plants resistant,[3]; F2 source (FS4/FS2)X-1,94
same,Suscept: number of plants susceptible,[3]; F2 source (FS4/FS2)X-1,0
same,Resist: number of plants resistant,[3]; F2 source (FS4/FS2)X-2,95
same,Suscept: number of plants susceptible,[3]; F2 source (FS4/FS2)X-2,1
same,Resist: number of plants resistant,[3]; F2 source (FS4/FS2)X-3,95
same,Suscept: number of plants susceptible,[3]; F2 source (FS4/FS2)X-3,0
same,Resist: number of plants resistant,[3]; F2 source (FS4/FS3)X-1,96
same,Suscept: number of plants susceptible,[3]; F2 source (FS4/FS3)X-1,0
same,Resist: number of plants resistant,[3]; F2 source (FS4/FS3)X-2,100
same,Suscept: number of plants susceptible,[3]; F2 source (FS4/FS3)X-2,0
same,Resist: number of plants resistant,[3]; F2 source (FS4/FS3)X-3,94
same,Suscept: number of plants susceptible,[3]; F2 source (FS4/FS3)X-3,0
same,Resist: number of plants resistant,[3]; Total of (FS1/FS2) sources,230
same,Suscept: number of plants susceptible,[3]; Total of (FS1/FS2) sources,4
same,Resist: number of plants resistant,[3]; Total of (FS1/FS3) sources,267
same,Suscept: number of plants susceptible,[3]; Total of (FS1/FS3) sources,0
same,Resist: number of plants resistant,[3]; Total of (FS1/FS4) sources,279
same,Suscept: number of plants susceptible,[3]; Total of (FS1/FS4) sources,2
same,Resist: number of plants resistant,[3]; Total of (FS2/FS1) sources,283
same,Suscept: number of plants susceptible,[3]; Total of (FS2/FS1) sources,0
same,Resist: number of plants resistant,[3]; Total of (FS2/FS3) sources,278
same,Suscept: number of plants susceptible,[3]; Total of (FS2/FS3) sources,1
same,Resist: number of plants resistant,[3]; Total of (FS2/FS4) sources,296
same,Suscept: number of plants susceptible,[3]; Total of (FS2/FS4) sources,1
same,Resist: number of plants resistant,[3]; Total of (FS3/FS1) sources,286
same,Suscept: number of plants susceptible,[3]; Total of (FS3/FS1) sources,1
same,Resist: number of plants resistant,[3]; Total of (FS3/FS2) sources,286
same,Suscept: number of plants susceptible,[3]; Total of (FS3/FS2) sources,0
same,Resist: number of plants resistant,[3]; Total of (FS3/FS4) sources,290
same,Suscept: number of plants susceptible,[3]; Total of (FS3/FS4) sources,0
same,Resist: number of plants resistant,[3]; Total of (FS4/FS1) sources,278
same,Suscept: number of plants susceptible,[3]; Total of (FS4/FS1) sources,2
same,Resist: number of plants resistant,[3]; Total of (FS4/FS2) sources,284
same,Suscept: number of plants susceptible,[3]; Total of (FS4/FS2) sources,1
same,Resist: number of plants resistant,[3]; Total of (FS4/FS3) sources,290
same,Suscept: number of plants susceptible,[3]; Total of (FS4/FS3) sources,0
same,rate to which the mutant wheat is resistant,"[4]; mutant wheat FS1-FS4, plant growth four weeks after treatment",more than 320 g/ha
same,increased tolerance of mutant wheat,"[4]; mutant wheat FS1-FS4 versus Fidel, four weeks after treatment",~8 fold
same,effect on final plant height,[5],no effect
